According to the supplement of paper PMC10307832:

Experiments:
Test in all cases: relative viability (nuclei count vs DMSO), 5 days (fraction); higher = more cells survive
CAL-12T = tested on: CAL-12T
Outline: (§1)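 Medians of duplicate plates are given as relative viability. That measure is the nuclei count in treated wells divided by the count in vehicle wells. Counts were taken on 4× images of lung cancer cell lines in 1536-well plates, 5 days after pin-tool dosing the day after seeding with one drug alone or a fixed anchor-drug dose plus five library-drug doses (not always all listed) in √10 steps.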

COR-L 105 = tested on: COR-L 105
Outline: as §1

ChaGo-K-1 = tested on: ChaGo-K-1
Outline: as §1

EMC-BAC-2 = tested on: EMC-BAC-2
Outline: as §1

EPLC-272H = tested on: EPLC-272H
Outline: as §1

HCC-15 = tested on: HCC-15
Outline: as §1

HCC-78 = tested on: HCC-78
Outline: as §1

HOP-62 = tested on: HOP-62
Outline: as §1

LXF-289 = tested on: LXF-289
Outline: as §1

NCI-H1666 = tested on: NCI-H1666
Outline: as §1

NCI-H1755 = tested on: NCI-H1755
Outline: as §1

NCI-H1915 = tested on: NCI-H1915
Outline: as §1

NCI-H1975 = tested on: NCI-H1975
Outline: as §1

NCI-H2023 = tested on: NCI-H2023
Outline: as §1

NCI-H2085 = tested on: NCI-H2085
Outline: as §1

NCI-H2126 = tested on: NCI-H2126
Outline: as §1

NCI-H3122 = tested on: NCI-H3122
Outline: as §1

NCI-H322M = tested on: NCI-H322M
Outline: as §1

NCI-H358 = tested on: NCI-H358
Outline: as §1

NCI-H441 = tested on: NCI-H441
Outline: as §1

UMC-11 = tested on: UMC-11
Outline: as §1

For `O=c1cc(-c2cccc3c2Sc2ccccc2S3)oc(N2CCOCC2)c1` + CC(=O)Nc1cccc(-n2c(=O)n(C3CC3)c(=O)c3c(Nc4ccc(I)cc4F)n(C)c(=O)c(C)c32)c1 [Trametinib] (partner 0.02 µM), the relative viability (CAL-12T; first compound 0.08 µM) was 0.297, the relative viability (CAL-12T; first compound 0.253 µM) was 0.333 and the relative viability (CAL-12T; first compound 0.8 µM) was 0.305. It also gave a relative viability (CAL-12T; first compound 2.53 µM) of 0.263, a relative viability (CAL-12T; first compound 8 µM) of 0.246 and a relative viability (COR-L 105; first compound 0.08 µM) of 0.397. The relative viability (COR-L 105; first compound 0.253 µM) was 0.359, the relative viability (COR-L 105; first compound 0.8 µM) was 0.383 and the relative viability (COR-L 105; first compound 2.53 µM) was 0.434. It also gave a relative viability (COR-L 105; first compound 8 µM) of 0.461, a relative viability (ChaGo-K-1; first compound 0.08 µM) of 0.862 and a relative viability (ChaGo-K-1; first compound 0.253 µM) of 0.935. It also gave a relative viability (ChaGo-K-1; first compound 0.8 µM) of 0.894, a relative viability (ChaGo-K-1; first compound 2.53 µM) of 0.908 and a relative viability (ChaGo-K-1; first compound 8 µM) of 0.955. For the same compound, the relative viability (EMC-BAC-2; first compound 0.08 µM) was 0.804, the relative viability (EMC-BAC-2; first compound 0.253 µM) was 1.04 and the relative viability (EMC-BAC-2; first compound 0.8 µM) was 0.842. It also gave a relative viability (EMC-BAC-2; first compound 2.53 µM) of 0.908, a relative viability (EMC-BAC-2; first compound 8 µM) of 0.895 and a relative viability (EPLC-272H; first compound 0.08 µM) of 0.254. The relative viability (EPLC-272H; first compound 0.253 µM) was 0.293, the relative viability (EPLC-272H; first compound 0.8 µM) was 0.238 and the relative viability (EPLC-272H; first compound 2.53 µM) was 0.28. The relative viability (EPLC-272H; first compound 8 µM) was 0.28, the relative viability (HCC-15; first compound 0.08 µM) was 0.362 and the relative viability (HCC-15; first compound 0.253 µM) was 0.454. It also gave a relative viability (HCC-15; first compound 0.8 µM) of 0.369, a relative viability (HCC-15; first compound 2.53 µM) of 0.363 and a relative viability (HCC-15; first compound 8 µM) of 0.38. It also gave a relative viability (HCC-78; first compound 0.08 µM) of 0.712, a relative viability (HCC-78; first compound 0.253 µM) of 1.03 and a relative viability (HCC-78; first compound 0.8 µM) of 0.677. It also gave a relative viability (HCC-78; first compound 2.53 µM) of 0.786, a relative viability (HCC-78; first compound 8 µM) of 0.544 and a relative viability (HOP-62; first compound 0.08 µM) of 0.401. The relative viability (HOP-62; first compound 0.253 µM) was 0.394, the relative viability (HOP-62; first compound 0.8 µM) was 0.348 and the relative viability (HOP-62; first compound 2.53 µM) was 0.319. It also gave a relative viability (HOP-62; first compound 8 µM) of 0.321, a relative viability (LXF-289; first compound 0.08 µM) of 0.657 and a relative viability (LXF-289; first compound 0.253 µM) of 0.716. It also gave a relative viability (LXF-289; first compound 0.8 µM) of 0.73, a relative viability (LXF-289; first compound 2.53 µM) of 0.651 and a relative viability (LXF-289; first compound 8 µM) of 0.692. For the same compound, the relative viability (NCI-H1666; first compound 0.08 µM) was 0.828, the relative viability (NCI-H1666; first compound 0.253 µM) was 0.916 and the relative viability (NCI-H1666; first compound 0.8 µM) was 0.864. The relative viability (NCI-H1666; first compound 2.53 µM) was 0.89, the relative viability (NCI-H1666; first compound 8 µM) was 0.793 and the relative viability (NCI-H1755; first compound 0.08 µM) was 0.739. For the same compound, the relative viability (NCI-H1755; first compound 0.253 µM) was 0.867, the relative viability (NCI-H1755; first compound 0.8 µM) was 0.732 and the relative viability (NCI-H1755; first compound 2.53 µM) was 0.789. The relative viability (NCI-H1755; first compound 8 µM) was 0.787, the relative viability (NCI-H1915; first compound 0.08 µM) was 0.293 and the relative viability (NCI-H1915; first compound 0.253 µM) was 0.312. The relative viability (NCI-H1915; first compound 0.8 µM) was 0.32, the relative viability (NCI-H1915; first compound 2.53 µM) was 0.285 and the relative viability (NCI-H1915; first compound 8 µM) was 0.264. It also gave a relative viability (NCI-H1975; first compound 0.08 µM) of 0.323, a relative viability (NCI-H1975; first compound 0.253 µM) of 0.295 and a relative viability (NCI-H1975; first compound 0.8 µM) of 0.327. It also gave a relative viability (NCI-H1975; first compound 2.53 µM) of 0.347, a relative viability (NCI-H1975; first compound 8 µM) of 0.39 and a relative viability (NCI-H2023; first compound 0.08 µM) of 0.564. It also gave a relative viability (NCI-H2023; first compound 0.253 µM) of 0.647, a relative viability (NCI-H2023; first compound 0.8 µM) of 0.6 and a relative viability (NCI-H2023; first compound 2.53 µM) of 0.534. For the same compound, the relative viability (NCI-H2023; first compound 8 µM) was 0.426, the relative viability (NCI-H2085; first compound 0.08 µM) was 0.526 and the relative viability (NCI-H2085; first compound 0.253 µM) was 0.573. For the same compound, the relative viability (NCI-H2085; first compound 0.8 µM) was 0.441, the relative viability (NCI-H2085; first compound 2.53 µM) was 0.401 and the relative viability (NCI-H2085; first compound 8 µM) was 0.446. For the same compound, the relative viability (NCI-H2126; first compound 0.08 µM) was 0.583, the relative viability (NCI-H2126; first compound 0.253 µM) was 0.583 and the relative viability (NCI-H2126; first compound 0.8 µM) was 0.526. For the same compound, the relative viability (NCI-H2126; first compound 2.53 µM) was 0.508, the relative viability (NCI-H2126; first compound 8 µM) was 0.474 and the relative viability (NCI-H3122; first compound 0.08 µM) was 0.259. The relative viability (NCI-H3122; first compound 0.253 µM) was 0.299, the relative viability (NCI-H3122; first compound 0.8 µM) was 0.314 and the relative viability (NCI-H3122; first compound 2.53 µM) was 0.193. The relative viability (NCI-H3122; first compound 8 µM) was 0.292, the relative viability (NCI-H322M; first compound 0.08 µM) was 0.52 and the relative viability (NCI-H322M; first compound 0.253 µM) was 0.558. For the same compound, the relative viability (NCI-H322M; first compound 0.8 µM) was 0.591, the relative viability (NCI-H322M; first compound 2.53 µM) was 0.443 and the relative viability (NCI-H322M; first compound 8 µM) was 0.529. It also gave a relative viability (NCI-H358; first compound 0.08 µM) of 0.123, a relative viability (NCI-H358; first compound 0.253 µM) of 0.134 and a relative viability (NCI-H358; first compound 0.8 µM) of 0.123. It also gave a relative viability (NCI-H358; first compound 2.53 µM) of 0.111, a relative viability (NCI-H358; first compound 8 µM) of 0.152 and a relative viability (NCI-H441; first compound 0.08 µM) of 0.34. For the same compound, the relative viability (NCI-H441; first compound 0.253 µM) was 0.527, the relative viability (NCI-H441; first compound 0.8 µM) was 0.55 and the relative viability (NCI-H441; first compound 2.53 µM) was 0.465. For the same compound, the relative viability (NCI-H441; first compound 8 µM) was 0.424, the relative viability (UMC-11; first compound 0.08 µM) was 0.719 and the relative viability (UMC-11; first compound 0.253 µM) was 0.827. For the same compound, the relative viability (UMC-11; first compound 0.8 µM) was 0.78, the relative viability (UMC-11; first compound 2.53 µM) was 0.638 and the relative viability (UMC-11; first compound 8 µM) was 1.03.
